Source: article PMC6538996, “Evaluating the In Vivo Specificity of [^18F]UCB-H for the SV2A Protein, Compared with SV2B and SV2C in Rats Using microPET” (Molecules, 2019)

How the values were obtained:
SV2A = details: cited from earlier work
[1] = target: T1, [^18F]UCB-H binding in rat brain (Rattus norvegicus, UniProt Q02563); test: microPET blocking assay of [18F]UCB-H (Vt, Logan plot, PBIF) after pre-treatment with competitors; format: in vivo, Sprague Dawley rats; details: mean ± SEM, n = 5, SV2AL 10 mg/kg, SV2BL and SV2CL 3 mg/kg i.p.
T1 construct: from tissue; host or cells: brain of living Sprague Dawley rats (microPET)
Method: The competitors were prepared daily in a vehicle composed of distilled water containing 1% methyl cellulose (viscosity: 15 cP, Sigma-Aldrich, Overijse, Belgium) and 5% dimethyl sulphoxide (DMSO, Sigma-Aldrich, Belgium). The concentrations differed depending on the product specifications and their respective pharmacokinetics, provided by UCB Pharma s.a. The dosing used was 10 mg/kg for SV2AL, 3 mg/kg for SV2BL, and 3 mg/kg for SV2CL. All solutions were administered through the intraperitoneal (i.p.) route in a total volume of 1 mL per kg of body weight. The animals used as a control group (vehicle) received an equal volume of vehicle through the same route of administration.
The animals (n = 5 per group) were anesthetized using 4% isoflurane in air at a flow rate of 1 L/min during induction and 1.5% to 2% isoflurane in air at 0.6 L/min during maintenance. Respiration rate and rectal temperature were continuously measured using a physiological monitoring system (Minerve, France). The temperature was maintained at 37 ± 0.5 °C using an air warming system. […]
PMOD software (Version 3.6, PMOD Technologies, Zurich, Switzerland) was used to process the imaging data. […] Finally, the inverse normalization parameters were calculated and applied to the PMOD rat brain atlas to bring it in the individual PET space. […]

human SV2A = target: T2, human SV2A (Homo sapiens, UniProt Q7L0J3); test: In vitro radioligand binding assay, hSV2A (HEK293 membranes, 3H-UCB30889); details: 37 °C, mean n = 3 to 10, read-out: pIC50 SV2A (converted)
T2 construct: expressed in transfected cells; crude membranes
Method: Reagents and reference compounds used were of analytical grade and obtained from various commercial sources. All cell culture reagents were obtained from Invitrogen (Merelbeke, Belgium). […] Test and reference compounds were dissolved in 100% DMSO or H2O to give 1 or 10 mM stock solution. The final DMSO concentration in assays was 0.1% unless otherwise stated. Cell lines generated at UCB Biopharma were human embryonic kidney (HEK) 293 cells expressing human SV2A, SV2B or SV2C proteins. Cells were cultured in Dulbecco’s Modified Eagle medium. The culture medium was supplemented with foetal bovine serum (FBS, 10%), 2 mM L-glutamine, 50 to 100 U/mL penicillin, 50 to 100 µg/mL streptomycin, and 200 µg/mL hygromycin B. Cells were grown at 37 °C with 95% air. Confluent cells were detached by 10 min incubation at 37 °C in phosphate buffered saline (PBS) containing 0.02% EDTA. Culture flasks were washed with 15 mL of ice-cold PBS. The cell suspension was centrifuged at 1500× g for 10 min at 4 °C. The pellet was homogenized in 15 mM Tris-HCl buffer (pH 7.5) containing 2 mM MgCl2, 0.3 mM EDTA, and 1 mM EGTA (buffer A) using a glass/teflon homogenizer. The crude homogenate was subjected to a freeze and thaw cycle in liquid nitrogen and DNAse (1 µL/mL) was then added. […] The radioactivity trapped on the filters was counted by liquid scintillation in a β-counter. […]

T2 sequence (Q7L0J3 whole entry): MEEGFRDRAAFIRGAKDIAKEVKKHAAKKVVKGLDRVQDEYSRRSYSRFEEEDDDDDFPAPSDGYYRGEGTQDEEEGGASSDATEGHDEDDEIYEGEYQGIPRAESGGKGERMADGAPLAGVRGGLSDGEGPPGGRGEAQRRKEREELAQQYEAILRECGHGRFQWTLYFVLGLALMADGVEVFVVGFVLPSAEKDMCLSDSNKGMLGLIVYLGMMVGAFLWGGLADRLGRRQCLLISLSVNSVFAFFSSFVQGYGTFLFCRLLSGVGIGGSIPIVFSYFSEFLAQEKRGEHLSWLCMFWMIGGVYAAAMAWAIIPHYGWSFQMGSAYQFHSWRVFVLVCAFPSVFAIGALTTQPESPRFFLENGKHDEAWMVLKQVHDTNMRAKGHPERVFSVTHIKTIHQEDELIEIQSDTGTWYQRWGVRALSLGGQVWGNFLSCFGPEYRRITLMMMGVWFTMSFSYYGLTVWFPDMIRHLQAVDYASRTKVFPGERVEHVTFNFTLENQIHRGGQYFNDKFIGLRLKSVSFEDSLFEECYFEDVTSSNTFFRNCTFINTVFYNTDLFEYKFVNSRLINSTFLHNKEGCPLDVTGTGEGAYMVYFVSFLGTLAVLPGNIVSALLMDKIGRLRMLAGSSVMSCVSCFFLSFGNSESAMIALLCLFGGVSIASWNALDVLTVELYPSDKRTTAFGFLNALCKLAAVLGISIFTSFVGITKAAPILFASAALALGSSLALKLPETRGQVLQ
T1 sequence (Q02563 whole entry): as the sequence (Q7L0J3 whole entry) above, with D53E, S62A, T71A, E144D, A154T, G440S, S482A, I572V, M634L counted along it

## [11CH3]n1cncc1CN1C[C@@H](c2cc(F)cc(F)c2)CC1=O [[^11C]UCB-A]
SV2A
  pIC50 (affinity measured in vitro): 7.9

## CC[C@@H](C(N)=O)N1CCCC1=O [SV2AL, levetiracetam]
[1]
  mean Vt of [18F]UCB-H in the whole brain of the pre-treated group: 6.0 ± 0.3
Human SV2A
  IC50: 6.31 µM
